The text below walks through data of article PMC7178819, “6,7-Dimethoxy-2-phenethyl-1,2,3,4-tetrahydroisoquinoline amides and corresponding ester isosteres as multidrug resistance reversers” (Journal of Enzyme Inhibition and Medicinal Chemistry, 2020).

Data set [1] can be described thus: Apparent permeability (Papp) determination (BA/AB) in Caco-2 cell monolayer. Type of data set: in vitro ADME. The conditions noted are these: human, Caco-2 monolayer. The method, then:
Caco-2 cells were seeded onto a Millicell® assay system (Millipore), where a cell monolayer is set in between a filter cell and a receiver plate, at a density of 10 000 cells/well[46]. The culture medium was replaced every 48 h and the cells kept for 21 days in culture. The Trans Epithelial Electrical Resistance (TEER) of the monolayers was measured daily, before and after the experiment, using an epithelial volt-ohmmeter (Millicell®-ERS). Generally, TEER values greater than 1000 Ω for a 21 days culture, are considered optimal.
After 21 days of Caco-2 cell growth, the medium was removed from filter wells and from the receiver plate, which were filled with fresh HBSS buffer (Invitrogen). This procedure was repeated twice, and the plates were incubated at 37 °C for 30 min. After incubation time, the HBSS buffer was removed and drug solutions and reference compounds were added to the filter well at the concentration of 100 µM, while fresh HBSS was added to the receiver plate. The plates were incubated at 37 °C for 120 min. Afterwards, samples were removed from the apical (filter well) and basolateral (receiver plate) side of the monolayer to measure the permeability.
(§1) The interaction potency between the designed compounds and P-gp was evaluated by measuring the transport inhibition of the pro-fluorescent probe Calcein-AM, that is a P-gp substrate, in a cell line overexpressing P-gp (MDCK-MDR1)[47]. The P-gp interacting profile was further investigated with two other assays: the Apparent Permeability (Papp) determination (BA/AB) in Caco-2 cell monolayer[48]^,[49], and the ATP cell depletion in the MDCK-MDR1 cell line[50]. Taking into account the results of the combined tests, an interacting compound can be classified as substrate or inhibitor. Papp determination measures the ratio between two fluxes: from the basolateral to apical compartments (BA, representative of passive diffusion) and from the apical to basolateral compartments (AB, representative of active transport). […] In the same manner, if (BA/AB) >2, the compound should probably be classified as a substrate. […] The selectivity of ligands 1–26 was evaluated by detecting their activity towards the other ABC transporters MRP1 and BCRP, by measuring the inhibition of the efflux of Calcein-AM (i.e., also a MRP1 substrate) in cells overexpressing MRP1 (MDCK-MRP1 cells), and the inhibition of the efflux of the fluorescent probe Hoechst 33342 (i.e. a BCRP substrate) in cells overexpressing BCRP (MDCK-BCRP cells), respectively.

For data set [2], the target named is T1, P-gp (Homo sapiens, UniProt P08183).
T1 construct: expressed in transfected cells; host or cells: MDCK-MDR1 (Madin-Darby Canine Kidney cells, gift of Prof. P. Borst, NKI-AVL)
T1 sequence (P08183 whole entry): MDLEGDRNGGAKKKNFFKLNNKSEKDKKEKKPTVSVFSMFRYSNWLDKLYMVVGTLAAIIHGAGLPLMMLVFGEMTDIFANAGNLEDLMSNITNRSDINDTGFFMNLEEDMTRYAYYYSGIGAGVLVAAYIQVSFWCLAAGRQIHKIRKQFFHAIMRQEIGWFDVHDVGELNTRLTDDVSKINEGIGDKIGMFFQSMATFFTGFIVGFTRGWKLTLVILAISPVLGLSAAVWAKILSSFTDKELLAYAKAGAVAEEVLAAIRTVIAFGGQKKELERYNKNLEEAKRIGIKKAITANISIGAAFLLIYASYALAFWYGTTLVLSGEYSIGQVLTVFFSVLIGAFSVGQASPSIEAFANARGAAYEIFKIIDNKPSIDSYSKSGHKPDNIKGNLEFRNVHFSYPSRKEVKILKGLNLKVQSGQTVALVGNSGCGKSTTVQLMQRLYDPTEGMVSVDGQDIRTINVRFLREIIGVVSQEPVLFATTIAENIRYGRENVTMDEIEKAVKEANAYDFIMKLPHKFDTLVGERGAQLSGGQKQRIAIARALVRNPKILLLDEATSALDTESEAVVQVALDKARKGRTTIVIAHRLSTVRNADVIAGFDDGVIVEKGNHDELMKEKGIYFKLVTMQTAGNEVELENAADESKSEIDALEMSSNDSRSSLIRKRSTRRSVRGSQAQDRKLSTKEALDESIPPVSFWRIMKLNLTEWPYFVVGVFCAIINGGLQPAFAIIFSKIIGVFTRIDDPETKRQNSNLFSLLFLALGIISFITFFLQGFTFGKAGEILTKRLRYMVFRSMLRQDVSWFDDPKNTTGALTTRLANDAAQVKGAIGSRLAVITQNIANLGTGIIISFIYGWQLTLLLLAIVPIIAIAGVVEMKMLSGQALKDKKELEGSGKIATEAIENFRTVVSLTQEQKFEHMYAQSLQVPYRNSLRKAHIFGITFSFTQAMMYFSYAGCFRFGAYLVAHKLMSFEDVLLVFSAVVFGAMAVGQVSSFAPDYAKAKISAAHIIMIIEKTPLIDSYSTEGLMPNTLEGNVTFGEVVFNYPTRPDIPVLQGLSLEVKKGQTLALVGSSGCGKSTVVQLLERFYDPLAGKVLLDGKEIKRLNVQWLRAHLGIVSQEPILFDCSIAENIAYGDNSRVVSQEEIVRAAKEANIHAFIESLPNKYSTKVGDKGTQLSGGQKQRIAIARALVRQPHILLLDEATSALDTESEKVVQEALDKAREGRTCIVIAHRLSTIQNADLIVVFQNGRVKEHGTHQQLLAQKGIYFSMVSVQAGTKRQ
Nature of the data set: Inhibition of Calcein-AM transport in MDCK-MDR1 cells. Type of data set: cell-based. The conditions noted are these: Calcein-AM, MDCK-MDR1 cells; mean ± SEM of two experiments. How it is done:
These experiments were carried out as previously described by Teodori et al. with minor modifications. Each cell line (30 000 cells per well) was seeded into black CulturePlate 96/wells plate with 100 µL medium and allowed to become confluent overnight. 100 µL of test compounds were solubilised in culture medium and added to monolayers, with final concentrations ranging from 1 nM to 100 µM. 96/Wells plate was incubated for 30 min in a humidified atmosphere 5% CO2 at 37 °C. Calcein-AM was added in 100 µL of Phosphate Buffered Saline (PBS) to yield a final concentration of 2.5 µM and plate was incubated for 30 min in a humidified atmosphere 5% CO2 at 37 °C. Each well was washed 3 times with ice cold PBS. Saline buffer was added to each well and the plate was read with Victor3 (PerkinElmer) at excitation and emission wavelengths of 485 and 535 nm, respectively. In these experimental conditions, Calcein cell accumulation in the absence and in the presence of tested compounds was evaluated and fluorescence basal level was estimated with untreated cells. In treated wells the increase of fluorescence with respect to basal level was measured. EC50 values were determined by fitting the fluorescence increase percentage versus log[dose].
The interaction potency between the designed compounds and P-gp was evaluated by measuring the transport inhibition of the pro-fluorescent probe Calcein-AM, that is a P-gp substrate, in a cell line overexpressing P-gp (MDCK-MDR1)[47]. The P-gp interacting profile was further investigated with two other assays: the Apparent Permeability (Papp) determination (BA/AB) in Caco-2 cell monolayer[48]^,[49], and the ATP cell depletion in the MDCK-MDR1 cell line[50]. […] Papp determination measures the ratio between two fluxes: from the basolateral to apical compartments (BA, representative of passive diffusion) and from the apical to basolateral compartments (AB, representative of active transport). […] In the same manner, if (BA/AB) >2, the compound should probably be classified as a substrate.

The target of data set [3] is T1, P-gp. Put plainly: ATP cell depletion (ATPlite assay) in MDCK-MDR1 cells. Type of data set: cell-based. The conditions noted are these: Yes/No. How it is done: The MDCK-MDR1 cells were seeded into 96-well microplate in 100 µL of complete medium at a density 20,000 cells per well. The plate was incubated overnight (O/N) in a humidified atmosphere 5% CO2 at 37 °C. The medium was removed and 100 µL of complete medium either alone or containing different concentrations (ranging from 1 to 100 µM) of test compounds was added. The plate was incubated for 2 h in a humidified 5% CO2 atmosphere at 37 °C. 50 µL of mammalian cell lysis solution was added to all wells and the plate shacked for five minutes in an orbital shaker. 50 µL of substrate solution was added to all wells and the plate shacked for five minutes in an orbital shaker. The plate was dark adapted for ten minutes and the luminescence was measured.
as §1

The nature of data set [4]: Stability test in human plasma (LC-MS/MS). The conditions noted are these: human plasma; for half-life at 1 µM: human, 37 °C. Type of data set: in vitro ADME. How it is done:
Each sample was prepared adding 10 µL of working solution 1 to 100 µL of tested matrix (PBS or human plasma) in micro centrifuge tubes. The obtained solutions correspond to 1 µM of analyte.
After the incubation, the samples were added with 300 µL of ISTD solution and centrifuged (room temperature for 5 min at 10,000 rpm). The supernatants were transferred in auto sampler vials and dried under a gentle stream of nitrogen.
The dried samples were dissolved in 1.0 ml of 10 mM of formic acid in mQ water: acetonitrile 80:20 solution. The obtained sample solutions were analysed by LC-MS/MS methods described in Supplementary material.
For this purpose, a series of experiments were carried out, adding a known amount of analyte in both phosphate buffer solution (PBS) and in human plasma. The samples were analysed by LC-MS/MS method operating in Multiple Reaction Monitoring (MRM) mode[55].
The analyte concentration (1 µM) used during the stability tests is generally smaller than the corresponding Michaelis–Menten constant (KM); therefore, the enzymatic degradation rate is described by a first-order kinetic. Then, by plotting the natural logarithm of the quantitative data versus the incubation time, a linear function can be used and its slope represents the degradation rate (k).

`COc1cc2c(cc1OC)CN(CCc1ccc(NC(=O)c3c(OC)ccc4ccccc34)cc1)CC2` [Compound 7, N-(4–(2-(6,7-dimethoxy-3,4-dihydroisoquinolin-2(1H)-yl)ethyl)phenyl)-2-methoxy-1-naphthamide]: the efflux ratio at 120 min, 100 µM in data set [1] came out at 11.8. For the same compound, the EC50 in data set [2] was 0.12 ± 0.022 µM. The ATP cell depletion entry in data set [3] is on record as “No”. In addition, the half-life at 1 µM in data set [4] is ≥ 4 h.
With `COc1ccc2nccc(C(=O)Nc3ccc(CCN4CCc5cc(OC)c(OC)cc5C4)cc3)c2c1` [Compound 13, N-(4–(2-(6,7-dimethoxy-3,4-dihydroisoquinolin-2(1H)-yl)ethyl)phenyl)-6-methoxyquinoline-4-carboxamide], the efflux ratio at 120 min, 100 µM in data set [1] came out at 6.5. Further, the EC50 in data set [2] is 0.66 ± 0.13 µM. In data set [3], the ATP cell depletion result was “No”. In addition, the half-life at 1 µM in data set [4] is ≥ 4 h.
Take `COc1cc2c(cc1OC)CN(CCc1ccc(NC(=O)c3cccc4ccccc34)cc1)CC2` [Compound 6, N-(4–(2-(6,7-dimethoxy-3,4-dihydroisoquinolin-2(1H)-yl)ethyl)phenyl)-1-naphthamide]: the efflux ratio at 120 min, 100 µM in data set [1] was 3.6. The EC50 in data set [2] was 0.67 ± 0.12 µM. Further, in data set [3], the ATP cell depletion result is given as “No”. The half-life at 1 µM in data set [4] was ≥ 4 h.
Taken in the same sequence, the figures for `COc1cc2c(cc1OC)CN(CCc1ccc(NC(=O)c3cnccn3)cc1)CC2` [Compound 11, N-(4–(2-(6,7-dimethoxy-3,4-dihydroisoquinolin-2(1H)-yl)ethyl)phenyl)pyrazine-2-carboxamide] were 4.9, 1.9 ± 0.32 µM, “No” and ≥ 4 h.
Take `COc1cc2c(cc1OC)CN(CCc1ccc(NC(=O)c3cccnc3)cc1)CC2` [Compound 9, N-(4–(2-(6,7-dimethoxy-3,4-dihydroisoquinolin-2(1H)-yl)ethyl)phenyl)nicotinamide]: the efflux ratio at 120 min, 100 µM in data set [1] stood at 7.3. In data set [2], the EC50 is 6.4 ± 1.26 µM. The ATP cell depletion entry in data set [3] was “No”. For the same compound, the half-life at 1 µM in data set [4] was ≥ 4 h.
With `COc1ccc(C(=O)Oc2ccc(CCN3CCc4cc(OC)c(OC)cc4C3)cc2)cn1` [Compound 23, 4–(2-(6,7-Dimethoxy-3,4-dihydroisoquinolin-2(1H)-yl)ethyl)phenyl 6-methoxynicotinate], in data set [1], the efflux ratio at 120 min, 100 µM was determined as 5.6. For the same compound, the EC50 in data set [2] is 9.24 ± 1.81 µM. Moreover, in data set [3], the ATP cell depletion entry is “No”. The half-life at 1 µM in data set [4] was ≥ 4 h.
As to `CCOC(=O)C(C)c1cccc(C(=O)c2ccccc2)c1` (stereo not drawn) [KEE, Ketoprofen ethyl ester, reference compound], the t1/2 in data set [4] (reference compound for enzymatic activity of the batch) was < 2 h.
Consider `COc1cc2c(cc1OC)CN(CCc1ccc(NC(=O)c3c(OC)cccc3OC)cc1)CC2` [Compound 4, N-(4–(2-(6,7-dimethoxy-3,4-dihydroisoquinolin-2(1H)-yl)ethyl)phenyl)-2,6-dimethoxybenzamide], for which the efflux ratio at 120 min, 100 µM in data set [1] stood at 5.5. Also, the EC50 in data set [2] is 7.2 ± 1.39 µM. Further, the ATP cell depletion result in data set [3] is “No”. Further, the half-life at 1 µM in data set [4] was ≥ 4 h.
With `COc1cc2c(cc1OC)CN(CCc1ccc(OC(=O)c3c(OC)cccc3OC)cc1)CC2` [Compound 17, 4–(2-(6,7-Dimethoxy-3,4-dihydroisoquinolin-2(1H)-yl)ethyl)phenyl 2,6-dimethoxybenzoate], in data set [1], the efflux ratio at 120 min, 100 µM is 6.2. Besides, the EC50 in data set [2] was 0.15 ± 0.03 µM. The ATP cell depletion result in data set [3] is given as “No”. In data set [4], the half-life at 1 µM is ≥ 4 h.
Taken in the same sequence, the figures for `COc1cc2c(cc1OC)CN(CCc1ccc(OC(=O)c3cnccn3)cc1)CC2` [Compound 24, 4–(2-(6,7-Dimethoxy-3,4-dihydroisoquinolin-2(1H)-yl)ethyl)phenyl pyrazine-2-carboxylate] were 4.9, 1.9 ± 0.32 µM, “No” and 0.7 ± 0.333 h.
As for `COc1cc2c(cc1OC)CN(CCc1ccc(NC(=O)c3cccc4c(=O)c5cccc(OC)c5[nH]c34)cc1)CC2` [elacridar, reference compound], the ATP cell depletion entry in data set [3] was “Yes^g”.
With `COc1cc2c(cc1OC)CN(CCc1ccc(OC(=O)c3cccnc3)cc1)CC2` [Compound 22, 4–(2-(6,7-Dimethoxy-3,4-dihydroisoquinolin-2(1H)-yl)ethyl)phenyl nicotinate], the efflux ratio at 120 min, 100 µM in data set [1] was 5. Also, the EC50 in data set [2] is 29.4 ± 4.98 µM. For the same compound, the ATP cell depletion result in data set [3] is “No”. Further, in data set [4], the half-life at 1 µM was ≥ 4 h.
In the case of `COc1cc2c(cc1OC)CN(CCc1ccc(NC(=O)c3ccccc3OC)cc1)CC2` [Compound 2, N-(4–(2-(6,7-dimethoxy-3,4-dihydroisoquinolin-2(1H)-yl)ethyl)phenyl)-2-methoxybenzamide], the efflux ratio at 120 min, 100 µM in data set [1] came out at 5.9. The EC50 in data set [2] was 0.44 ± 0.082 µM. In addition, in data set [3], the ATP cell depletion result is “No”. In addition, the half-life at 1 µM in data set [4] was ≥ 4 h.
Turning to `COc1ccc(C(=O)Nc2ccc(CCN3CCc4cc(OC)c(OC)cc4C3)cc2)cn1` [Compound 10, N-(4–(2-(6,7-dimethoxy-3,4-dihydroisoquinolin-2(1H)-yl)ethyl)phenyl)-6-methoxynicotinamide], in data set [1], the efflux ratio at 120 min, 100 µM turned out to be 7.5. Further, the EC50 in data set [2] was 2.3 ± 0.44 µM. In addition, the ATP cell depletion entry in data set [3] is “No”. The half-life at 1 µM in data set [4] is ≥ 4 h.
Taken in the same sequence, the figures for `COc1ccc2nccc(C(=O)Oc3ccc(CCN4CCc5cc(OC)c(OC)cc5C4)cc3)c2c1` [Compound 26, 4–(2-(6,7-Dimethoxy-3,4-dihydroisoquinolin-2(1H)-yl)ethyl)phenyl 6-methoxyquinoline-4-carboxylate] were 8.7, 1.4 ± 0.26 µM, “No” and 2.07 ± 0.45 h.
